The record followed here is ChEMBL document CHEMBL1773004, “1-[(1-methyl-1H-imidazol-2-yl)methyl]-4-phenylpiperidines as mGluR2 positive allosteric modulators for the treatment of psychosis” (J Med Chem, 2011).

Usually inhibition stands for the relative decrease from the control value, in per cent. Read a high inhibition as a response far below the control. A word on the Ki: it is the equilibrium dissociation constant of an inhibitor or competing ligand from its target. A high value points to lower affinity. What is called EC50 is the concentration at which the effect is half-maximal.

Data set [1] can be described thus: Permeability from apical to basolateral side of MDR1 transfected MDCK cells at 1 uM. The class given is ADME, cell-based, Canis lupus familiaris. The note with it: dog, read-out: permeability.
In data set [2] the target is Metabotropic glutamate receptor 5 (Homo sapiens) (UniProt P41594). The data set can be described thus: Agonist activity at mGlu5 receptor at up to 10 uM. The class given is functional.
Metabotropic glutamate receptor 5 (Homo sapiens), sequence (P41594 21-1212 limits assumed): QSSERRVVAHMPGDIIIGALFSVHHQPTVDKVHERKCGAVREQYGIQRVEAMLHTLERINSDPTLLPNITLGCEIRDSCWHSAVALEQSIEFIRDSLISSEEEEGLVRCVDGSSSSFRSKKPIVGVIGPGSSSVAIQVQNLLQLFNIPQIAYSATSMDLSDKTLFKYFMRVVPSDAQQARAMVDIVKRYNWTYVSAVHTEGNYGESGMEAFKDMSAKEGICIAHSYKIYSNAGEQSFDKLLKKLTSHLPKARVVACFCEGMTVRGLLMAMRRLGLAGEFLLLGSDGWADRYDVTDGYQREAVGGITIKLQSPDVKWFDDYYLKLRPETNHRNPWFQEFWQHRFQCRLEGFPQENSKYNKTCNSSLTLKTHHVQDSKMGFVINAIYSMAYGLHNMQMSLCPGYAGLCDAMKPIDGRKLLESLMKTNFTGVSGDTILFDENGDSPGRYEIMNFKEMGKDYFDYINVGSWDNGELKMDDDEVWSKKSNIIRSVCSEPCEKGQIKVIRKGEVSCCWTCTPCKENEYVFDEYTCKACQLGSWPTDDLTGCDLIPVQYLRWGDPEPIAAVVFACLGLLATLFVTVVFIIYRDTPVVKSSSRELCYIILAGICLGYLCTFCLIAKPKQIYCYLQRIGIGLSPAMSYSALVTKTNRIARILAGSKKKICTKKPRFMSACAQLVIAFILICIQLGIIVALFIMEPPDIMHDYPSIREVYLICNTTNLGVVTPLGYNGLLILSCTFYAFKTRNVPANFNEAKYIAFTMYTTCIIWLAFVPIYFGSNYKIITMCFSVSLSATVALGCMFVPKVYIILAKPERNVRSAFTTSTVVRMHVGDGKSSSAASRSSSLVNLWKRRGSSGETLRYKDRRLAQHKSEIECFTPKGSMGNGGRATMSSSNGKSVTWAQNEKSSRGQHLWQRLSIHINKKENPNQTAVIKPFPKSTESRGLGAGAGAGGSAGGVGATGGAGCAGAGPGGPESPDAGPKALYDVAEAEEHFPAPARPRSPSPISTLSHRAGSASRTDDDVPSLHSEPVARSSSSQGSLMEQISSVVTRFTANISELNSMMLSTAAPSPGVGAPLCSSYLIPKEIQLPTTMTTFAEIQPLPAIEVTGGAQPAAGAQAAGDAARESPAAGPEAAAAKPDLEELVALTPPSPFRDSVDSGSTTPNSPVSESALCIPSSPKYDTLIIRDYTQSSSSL
In data set [3] the target is Histamine H1 receptor (Homo sapiens) (UniProt P35367). Put plainly: Binding affinity to histamine H1 receptor at 3.16 uM.
Histamine H1 receptor (Homo sapiens), sequence (P35367 whole entry): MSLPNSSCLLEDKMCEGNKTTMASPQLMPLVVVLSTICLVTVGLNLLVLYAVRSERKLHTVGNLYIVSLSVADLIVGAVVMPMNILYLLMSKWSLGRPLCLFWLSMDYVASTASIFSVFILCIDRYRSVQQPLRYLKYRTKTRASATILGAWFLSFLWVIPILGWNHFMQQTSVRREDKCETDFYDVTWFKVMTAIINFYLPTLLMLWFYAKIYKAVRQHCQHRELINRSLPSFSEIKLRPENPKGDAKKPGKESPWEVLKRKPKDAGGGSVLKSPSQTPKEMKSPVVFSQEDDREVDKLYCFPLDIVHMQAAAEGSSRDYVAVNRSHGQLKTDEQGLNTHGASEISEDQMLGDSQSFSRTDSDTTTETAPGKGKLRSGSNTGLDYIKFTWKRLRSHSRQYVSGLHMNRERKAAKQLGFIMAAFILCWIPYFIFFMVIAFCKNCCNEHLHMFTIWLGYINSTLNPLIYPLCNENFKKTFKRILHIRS
Data set [4] addresses Metabotropic glutamate receptor 1 (Homo sapiens) (UniProt Q13255). Put plainly: Antagonist activity at mGlu1 receptor at up to 10 uM. The data set is classed as functional.
In data set [5] the target is Metabotropic glutamate receptor 5 (Homo sapiens) (UniProt P41594). Put plainly: Antagonist activity at mGlu5 receptor at up to 10 uM. The class given is functional.
Data set [6] deals with T1, Alpha-2A adrenergic receptor (Homo sapiens) (UniProt P08913).
T1 sequence (whole entry): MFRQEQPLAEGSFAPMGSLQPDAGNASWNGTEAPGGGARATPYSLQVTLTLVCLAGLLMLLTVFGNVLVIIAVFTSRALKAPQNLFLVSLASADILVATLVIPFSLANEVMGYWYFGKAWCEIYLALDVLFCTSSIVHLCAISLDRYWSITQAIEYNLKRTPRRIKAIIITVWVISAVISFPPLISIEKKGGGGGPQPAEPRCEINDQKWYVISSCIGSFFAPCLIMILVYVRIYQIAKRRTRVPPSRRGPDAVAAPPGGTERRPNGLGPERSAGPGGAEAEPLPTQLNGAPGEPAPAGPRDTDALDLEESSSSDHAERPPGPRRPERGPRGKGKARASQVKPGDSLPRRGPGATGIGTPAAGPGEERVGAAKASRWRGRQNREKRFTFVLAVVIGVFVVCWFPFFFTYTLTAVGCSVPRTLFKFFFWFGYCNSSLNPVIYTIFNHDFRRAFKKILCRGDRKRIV
The data set can be described thus: Binding affinity to adrenergic alpha2A receptor at 3.16 uM.

Data set [7] deals with 5-hydroxytryptamine receptor 2A (Homo sapiens) (UniProt P28223). The data set can be described thus: Binding affinity to 5HT2A receptor at 3.16 uM.
The target in data set [8] is 5-hydroxytryptamine receptor 2B (Homo sapiens) (UniProt P41595). The data set can be described thus: Binding affinity to 5HT2B receptor at 3.16 uM.
5-hydroxytryptamine receptor 2B (Homo sapiens), sequence (P41595 whole entry): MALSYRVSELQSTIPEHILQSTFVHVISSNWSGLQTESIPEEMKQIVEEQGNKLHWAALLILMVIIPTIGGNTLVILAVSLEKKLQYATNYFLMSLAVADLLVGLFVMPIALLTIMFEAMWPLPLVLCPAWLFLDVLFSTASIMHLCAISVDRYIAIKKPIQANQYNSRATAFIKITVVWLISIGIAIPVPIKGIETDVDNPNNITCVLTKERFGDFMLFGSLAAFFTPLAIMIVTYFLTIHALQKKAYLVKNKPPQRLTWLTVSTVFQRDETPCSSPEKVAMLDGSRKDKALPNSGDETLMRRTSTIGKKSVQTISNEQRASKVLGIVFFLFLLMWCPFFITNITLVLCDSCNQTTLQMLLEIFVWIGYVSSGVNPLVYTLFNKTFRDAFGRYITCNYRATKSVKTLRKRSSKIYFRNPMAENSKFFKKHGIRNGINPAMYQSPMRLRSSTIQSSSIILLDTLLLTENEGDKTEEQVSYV
Data set [9] concerns the target D(2) dopamine receptor (Rattus norvegicus, UniProt P61169). The data set can be described thus: Displacement of [3H]spiperone from dopamine D2 receptor in rat corpus striatum by beta plate scintillation counting. The data set is classed as tissue-based. (Displacement assays read how much labelled ligand stays bound in the presence of the test substance.)
The target in data set [10] is D(2) dopamine receptor (Homo sapiens, UniProt P14416). Put plainly: Antagonist activity at human dopamine D2 receptor expressed in CHO cells assessed as inhibition of quinpirole-induced effect. The data set is classed as functional, cell-based.
Another data set concerns the target hERG (KCNH2) (Homo sapiens, UniProt Q12809). Put plainly: Binding affinity to human ERG at 3.16 uM.
Data set [11] has as its target T2, 5-hydroxytryptamine receptor 1A (Homo sapiens) (UniProt P08908).
T2 sequence (whole entry): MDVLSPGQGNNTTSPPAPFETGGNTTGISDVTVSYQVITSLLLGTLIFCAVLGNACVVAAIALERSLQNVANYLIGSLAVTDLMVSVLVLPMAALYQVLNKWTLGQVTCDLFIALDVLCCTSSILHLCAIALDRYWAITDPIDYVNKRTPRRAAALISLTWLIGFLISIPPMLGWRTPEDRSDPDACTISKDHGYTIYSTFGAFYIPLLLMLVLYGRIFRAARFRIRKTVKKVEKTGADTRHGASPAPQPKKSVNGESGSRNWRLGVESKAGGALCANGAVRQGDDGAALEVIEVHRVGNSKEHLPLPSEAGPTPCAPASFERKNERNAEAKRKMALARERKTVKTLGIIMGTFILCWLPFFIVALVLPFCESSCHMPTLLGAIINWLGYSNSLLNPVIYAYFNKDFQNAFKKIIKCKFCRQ
Put plainly: Binding affinity to 5HT1A receptor at 3.16 uM.

The target of data set [12] is Metabotropic glutamate receptor 2 (Rattus norvegicus, UniProt P31421). The data set can be described thus: Positive allosteric modulation of rat mGluR2 expressed in HEK293 cells co-expressing Galpha15 G protein assessed as increase in glutamate-induced intracellular calcium release by FLIPR assay. The data set is classed as functional, cell-based.
Data set [13] concerns the target T3, Muscarinic acetylcholine receptor M1 (Homo sapiens) (UniProt P11229).
T3 sequence (whole entry): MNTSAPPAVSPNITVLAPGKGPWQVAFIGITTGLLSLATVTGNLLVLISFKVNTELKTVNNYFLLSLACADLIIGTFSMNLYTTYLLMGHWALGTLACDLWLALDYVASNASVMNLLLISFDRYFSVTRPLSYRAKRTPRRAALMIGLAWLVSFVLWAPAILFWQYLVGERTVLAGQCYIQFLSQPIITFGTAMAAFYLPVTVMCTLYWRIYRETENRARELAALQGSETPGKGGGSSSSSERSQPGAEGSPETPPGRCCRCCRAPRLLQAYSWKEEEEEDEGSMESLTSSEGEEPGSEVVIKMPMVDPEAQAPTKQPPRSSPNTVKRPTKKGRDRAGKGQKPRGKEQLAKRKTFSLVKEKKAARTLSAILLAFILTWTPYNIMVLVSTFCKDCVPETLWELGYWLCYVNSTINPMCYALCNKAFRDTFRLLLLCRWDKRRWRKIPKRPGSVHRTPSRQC
The data set can be described thus: Binding affinity to muscarinic M1 receptor at 3.16 uM.

Data set [14] deals with Metabotropic glutamate receptor 5 (Homo sapiens) (UniProt P41594). Put plainly: Positive allosteric modulation of mGlu5 receptor at up to 10 uM.
In another data set the test system is MDCK. The data set can be described thus: Efflux ratio of permeability from […] of MDR1 transfected MDCK cells at 1 uM. Particulars: dog. The class given is ADME, cell-based, Canis lupus familiaris.
Data set [15] addresses Metabotropic glutamate receptor 1 (Homo sapiens) (UniProt Q13255). The data set can be described thus: Agonist activity at mGlu1 receptor at up to 10 uM. The data set is classed as functional.

Activity calls are given as the source filed them. The rule behind the calls is not given here. Some results are limits rather than exact numbers.

Metabotropic glutamate receptor 1 (Homo sapiens), sequence (Q13255 19-1194 limits assumed): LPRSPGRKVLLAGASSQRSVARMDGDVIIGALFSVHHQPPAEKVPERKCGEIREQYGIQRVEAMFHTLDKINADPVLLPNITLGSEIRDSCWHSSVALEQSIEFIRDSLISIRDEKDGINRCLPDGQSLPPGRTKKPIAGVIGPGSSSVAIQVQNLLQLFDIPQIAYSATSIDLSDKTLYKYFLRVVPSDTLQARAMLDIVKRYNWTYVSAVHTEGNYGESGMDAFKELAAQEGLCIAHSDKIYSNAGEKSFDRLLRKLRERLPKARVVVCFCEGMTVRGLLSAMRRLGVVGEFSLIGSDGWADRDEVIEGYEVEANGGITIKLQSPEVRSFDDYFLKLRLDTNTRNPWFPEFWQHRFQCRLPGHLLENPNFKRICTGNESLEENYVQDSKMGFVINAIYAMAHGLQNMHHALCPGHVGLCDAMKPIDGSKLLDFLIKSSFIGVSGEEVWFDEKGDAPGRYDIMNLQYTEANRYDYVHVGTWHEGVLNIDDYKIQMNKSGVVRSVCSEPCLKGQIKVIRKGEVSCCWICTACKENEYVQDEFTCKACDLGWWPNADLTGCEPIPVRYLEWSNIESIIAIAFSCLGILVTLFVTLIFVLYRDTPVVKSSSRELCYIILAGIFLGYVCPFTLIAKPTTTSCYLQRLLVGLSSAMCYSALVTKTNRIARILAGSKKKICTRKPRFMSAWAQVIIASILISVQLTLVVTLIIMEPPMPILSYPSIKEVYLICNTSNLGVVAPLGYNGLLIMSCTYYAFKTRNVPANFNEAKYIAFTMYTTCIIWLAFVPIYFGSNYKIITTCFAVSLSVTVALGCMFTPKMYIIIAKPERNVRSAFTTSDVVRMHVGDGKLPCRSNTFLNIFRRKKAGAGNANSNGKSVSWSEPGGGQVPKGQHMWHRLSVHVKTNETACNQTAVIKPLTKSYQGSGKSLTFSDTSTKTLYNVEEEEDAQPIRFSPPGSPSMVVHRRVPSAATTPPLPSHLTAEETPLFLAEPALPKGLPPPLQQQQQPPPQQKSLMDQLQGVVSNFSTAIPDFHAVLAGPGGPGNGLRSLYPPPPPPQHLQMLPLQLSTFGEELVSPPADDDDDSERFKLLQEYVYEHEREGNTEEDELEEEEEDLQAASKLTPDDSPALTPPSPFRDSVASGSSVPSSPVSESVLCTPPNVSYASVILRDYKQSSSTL
D(2) dopamine receptor (Rattus norvegicus, UniProt P61169), sequence (P61169 whole entry): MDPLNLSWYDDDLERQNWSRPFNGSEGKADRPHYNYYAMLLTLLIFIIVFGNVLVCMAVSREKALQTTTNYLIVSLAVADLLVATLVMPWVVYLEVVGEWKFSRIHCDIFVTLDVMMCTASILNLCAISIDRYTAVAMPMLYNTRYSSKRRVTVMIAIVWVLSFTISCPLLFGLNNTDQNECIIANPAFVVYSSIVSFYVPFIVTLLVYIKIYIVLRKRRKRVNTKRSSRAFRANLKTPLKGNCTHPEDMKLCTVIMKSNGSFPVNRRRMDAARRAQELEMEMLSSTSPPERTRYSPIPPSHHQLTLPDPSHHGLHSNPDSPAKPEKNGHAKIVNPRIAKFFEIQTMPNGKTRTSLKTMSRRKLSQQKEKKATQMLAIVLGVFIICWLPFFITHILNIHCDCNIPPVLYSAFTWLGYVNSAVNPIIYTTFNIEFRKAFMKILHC
hERG (KCNH2), sequence (Q12809 whole entry): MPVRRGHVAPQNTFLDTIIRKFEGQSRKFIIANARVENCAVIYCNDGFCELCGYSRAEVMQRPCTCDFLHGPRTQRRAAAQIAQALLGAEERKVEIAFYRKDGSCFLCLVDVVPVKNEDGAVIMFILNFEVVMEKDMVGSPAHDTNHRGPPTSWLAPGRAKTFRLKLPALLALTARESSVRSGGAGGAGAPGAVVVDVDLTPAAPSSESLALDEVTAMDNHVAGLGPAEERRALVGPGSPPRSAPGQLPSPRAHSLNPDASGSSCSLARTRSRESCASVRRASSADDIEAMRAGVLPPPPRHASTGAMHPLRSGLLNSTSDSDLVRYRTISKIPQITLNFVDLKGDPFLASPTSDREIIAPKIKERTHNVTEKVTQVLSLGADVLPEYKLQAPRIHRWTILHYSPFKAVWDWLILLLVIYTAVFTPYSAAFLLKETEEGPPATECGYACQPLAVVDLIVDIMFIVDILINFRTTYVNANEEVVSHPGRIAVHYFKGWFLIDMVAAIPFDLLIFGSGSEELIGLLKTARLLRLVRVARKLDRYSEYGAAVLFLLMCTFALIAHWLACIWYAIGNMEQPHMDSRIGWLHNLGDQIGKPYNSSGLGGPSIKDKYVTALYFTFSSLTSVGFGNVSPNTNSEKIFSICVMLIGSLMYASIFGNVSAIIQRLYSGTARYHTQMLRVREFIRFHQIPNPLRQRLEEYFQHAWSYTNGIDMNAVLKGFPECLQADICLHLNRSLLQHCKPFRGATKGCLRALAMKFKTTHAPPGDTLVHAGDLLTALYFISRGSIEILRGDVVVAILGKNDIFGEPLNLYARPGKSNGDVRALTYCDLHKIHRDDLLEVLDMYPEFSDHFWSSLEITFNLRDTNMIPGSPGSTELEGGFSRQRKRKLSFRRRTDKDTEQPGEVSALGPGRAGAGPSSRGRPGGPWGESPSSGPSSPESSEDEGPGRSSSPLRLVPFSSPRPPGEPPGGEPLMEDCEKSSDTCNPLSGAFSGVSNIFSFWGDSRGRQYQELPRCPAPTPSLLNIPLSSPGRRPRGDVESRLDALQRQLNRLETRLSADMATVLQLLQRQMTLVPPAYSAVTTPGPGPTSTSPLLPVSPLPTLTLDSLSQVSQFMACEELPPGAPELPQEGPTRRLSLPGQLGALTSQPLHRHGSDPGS

On to `COc1ccccc1C1CCN(Cc2nc3ccccc3n2C)CC1`, for which the Papp A→B at 1 µM in data set [1] was 25.8 ×10⁻⁶ cm/s. Moreover, the outcome in data set [2], in data set [4], in data set [5], in data set [14] and in data set [15] was inactive. In addition, the inhibition in data set [3], in data set [6], in [7], in [8], in data set [11] and in data set [13] was less than 50% in each case. On D(2) dopamine receptor [9], the Ki turned out to be 0.426 µM. For the same molecule, the EC50 amounted to 0.951 µM on D(2) dopamine receptor [10] and 0.087 µM in data set [12]. Also, the inhibition at 3.16 µM on hERG (KCNH2) was less than 50%. Besides, in the data set with MDCK, the Ratio was found to be 1.28.
